Results reported in patent US12171755B2, “PAPD5 inhibitors and methods of use thereof” (Children's Medical Center Corporation, priority 2017, dated 2024).

Target: T1, PAPD5 (Homo sapiens, UniProt Q8NDF8)
T1 construct: made in house
Test: High-throughput luminescence (KinaseGlo) RNA polyadenylation assay, ATP utilization by recombinant PAPD5
Format: biochemical
Conditions: Table 4 (entries of Table 5), ratio of luminescence with inhibitor to DMSO; for Fold-change determined at compound concentration 33 μM: 33 μM compound; for Fold-change determined at compound concentration 100 μM: 100 μM compound, higher = higher inhibition
Method in brief: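 Recombinant PAPD5 polyadenylates an oligonucleotide substrate using ATP, and remaining ATP is read by KinaseGlo luciferase luminescence. Compound was incubated for 2 h at room temperature, then with luciferase for 10 min.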

T1 sequence (Q8NDF8 68-698 isoform Q8NDF8-5): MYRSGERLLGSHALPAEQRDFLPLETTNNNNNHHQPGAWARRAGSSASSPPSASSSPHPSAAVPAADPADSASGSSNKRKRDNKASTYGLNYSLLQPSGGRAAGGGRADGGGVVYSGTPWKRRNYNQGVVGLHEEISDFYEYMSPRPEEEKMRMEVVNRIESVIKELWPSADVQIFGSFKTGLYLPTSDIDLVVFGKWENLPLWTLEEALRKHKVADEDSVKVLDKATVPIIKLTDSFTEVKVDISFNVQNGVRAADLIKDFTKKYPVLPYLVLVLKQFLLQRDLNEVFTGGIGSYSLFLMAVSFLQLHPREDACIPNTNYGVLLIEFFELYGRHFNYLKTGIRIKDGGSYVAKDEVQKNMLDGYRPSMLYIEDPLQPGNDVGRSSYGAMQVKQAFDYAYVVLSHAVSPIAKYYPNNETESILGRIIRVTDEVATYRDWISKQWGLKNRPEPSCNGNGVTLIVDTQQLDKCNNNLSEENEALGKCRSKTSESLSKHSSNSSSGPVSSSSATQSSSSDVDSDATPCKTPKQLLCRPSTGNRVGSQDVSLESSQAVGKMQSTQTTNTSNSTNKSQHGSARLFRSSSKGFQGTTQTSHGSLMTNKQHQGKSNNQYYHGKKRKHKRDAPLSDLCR

Fold-change determined at compound concentration 33 μM | Fold-change determined at compound concentration 100 μM | Compound
1.106 | 1.31 | O=C(NCCN1CCCC1)c1ccc(Cn2c(SCc3ccc(Cl)cc3)nc3ccncc32)cc1 [Entry 203, 4-({2-[(4-chlorobenzyl)thio]-3H-imidazo[4,5-c]pyridin-3-yl}methyl)-N-(2-pyrrolidin-1-ylethyl)benzamide]
1.073 | 1.229 | Cc1nn(-c2ccc(Cl)cc2)c2sc(C(=O)O)cc12 [Entry 204, 1-(4-Chloro-phenyl)-3-methyl-1H-thieno[2,3-c]pyrazole-5-carboxylic acid]
1.211 | 1.492 | Cc1ccc(-c2n[nH]c(=O)c3c2CCCC3)cc1S(=O)(=O)Nc1ccc(S(N)(=O)=O)cc1 [Entry 208, N-[4-(aminosulfonyl)phenyl]-2-methyl-5-(4-oxo-3,4,5,6,7,8-hexahydrophthalazin-1-yl)benzenesulfonamide]
1.136 | 1.311 | O=C(O)c1csc2nc[nH]c(=O)c12 [Entry 210, 4-Oxo-3,4-dihydrothieno[2,3-d]pyrimidine-5-carboxylic acid]
1.065 | 1.217 | CCOC(=O)Cn1cnc2sc3c(c2c1=O)CCCC3 [Entry 211, Ethyl (4-oxo-5,6,7,8-tetrahydro[1]benzothieno[2,3-d]pyrimidin-3(4H)-yl)acetate]
1.199 | 1.579 | Cc1ccc2c(c1)n(Cc1ccc(Cl)cc1)c(=O)c1nc(C(=O)O)nn12 [Entry 213, 5-(4-chlorobenzyl)-7-methyl-4-oxo-4,5-dihydro[1,2,4]triazolo[1,5-a]quinoxaline-2-carboxylic acid]
1.074 | 2.037 | O=C(O)c1cccn2c(=O)c3c4c(sc3nc12)CCCC4 [Entry 215, 12-oxo-1,2,3,4-tetrahydro-12H-[1]benzothieno[2,3-d]pyrido[1,2-a]pyrimidine-7-carboxylic acid]
1.096 | 1.304 | COc1cccc(NC(=O)c2ccc3c(=O)n4nc(Nc5ccccc5OC)sc4nc3c2)c1 [Entry 218, 2-(2-methoxyanilino)-N-(3-methoxyphenyl)-5-oxo-[1,3,4]thiadiazolo[2,3-b]quinazoline-8-carboxamide]
1.086 | 1.339 | CC(C)Cn1c(=O)c(-c2ccc(C(=O)Nc3ccc4c(c3)OCCO4)cc2)nc2ccccc21 [Entry 219, N-(2,3-dihydro-1,4-benzodioxin-6-yl)-4-[4-(2-methylpropyl)-3-oxoquinoxalin-2-yl]benzamide]
1.084 | 1.585 | COc1ccc(C(=O)N2CCc3ccc(CNS(C)(=O)=O)cc32)cc1 [Entry 221, N-[[1-(4-methoxybenzoyl)-2,3-dihydroindol-6-yl]methyl]methanesulfonamide]

Further lines, the molecule ahead of its results:

Compound | Fold-change determined at compound concentration 33 μM | Fold-change determined at compound concentration 100 μM
Cn1nc(-c2ccc(Cl)cc2)c2cc(C(=O)O)sc21 [Entry 205, 3-(4-chlorophenyl)-1-methylthieno[2,3-c]pyrazole-5-carboxylic acid] | 1.232 | 2.055
CCS(=O)(=O)c1nc2ccc(NS(=O)(=O)c3ccc(F)c(F)c3)cc2s1 [Entry 206, N-(2-(ethylsulfonyl)benzo[d]thiazol-6-yl)-3,4-difluorobenzenesulfonamide] | 1.08 | 1.225
COc1ccc(OC)c2sc(N(CCCN(C)C)C(=O)c3ccco3)nc12 [Entry 207, N-(4,7-dimethoxy-1,3-benzothiazol-2-yl)-N-[3-(dimethylamino)propyl]furan-2-carboxamide] | 1.118 | 1.2
O=C(Cn1nc(Cc2ccncc2)c2ccccc2c1=O)N1CC=C(c2ccccc2)CC1 [Entry 209, 2-[2-oxo-2-(4-phenyl-3,6-dihydropyridin-1(2H)-yl)ethyl]-4-(pyridin-4-ylmethyl)phthalazin-1(2H)-one] | 1.093 | 1.274
O=C1c2cnccc2CN1c1cc(F)ccc1F [Entry 212, 2-(2,5-difluorophenyl)-1H-pyrrolo[3,4-c]pyridin-3-one] | 1.077 | 1.799
Cc1nn(CC(=O)O)c(=O)c2cc3cc(F)ccc3n12 [Entry 214, 2-(8-fluoro-4-methyl-1-oxo-[1,2,4]triazino[4,5-a]indol-2-yl)acetic acid] | 1.118 | 1.213
Cc1ccc(S(=O)(=O)NCc2ccc(-c3nn4cnnc4s3)cc2)cc1 [Entry 216, 4-methyl-N-[[4-([1,2,4]triazolo[3,4-b][1,3,4]thiadiazol-6-yl)phenyl]methyl]benzenesulfonamide] | 1.103 | 1.239
CCOc1ccc(-c2noc(Cn3cnc4c(cnn4-c4ccccc4)c3=O)n2)cc1OC [Entry 217, 5-[[3-(4-ethoxy-3-methoxyphenyl)-1,2,4-oxadiazol-5-yl]methyl]-1-phenylpyrazolo[3,4-d]pyrimidin-4-one] | 1.114 | 1.245
Cc1ccc2[nH]c(=O)c3cc(C(=O)O)sc3c2c1 [Entry 220, 8-methyl-4-oxo-5H-thieno[3,2-c]quinoline-2-carboxylic acid] | 1.068 | 1.277
O=C(O)Cc1c2ccccc2n2c1[nH]c(=O)c1ccccc12 [Entry 222, 2-(5-oxo-6H-indolo[1,2-a]quinazolin-7-yl)acetic acid] | 1.05 | 1.205
COc1cc(NS(=O)(=O)c2ccc3oc(=O)c4ncn(C)c4c3c2)cc(OC)c1 [Entry 223, N-(3,5-dimethoxyphenyl)-1-methyl-4-oxochromeno[3,4-d]imidazole-8-sulfonamide] | 1.207 | 1.254
COc1cc2[nH]c3c(SCC(N)=O)ncnc3c2cc1OC [Entry 224, 2-[(7,8-dimethoxy-5H-pyrimido[5,4-b]indol-4-yl)sulfanyl]acetamide] | 1.193 | 1.37
COc1cccc(-c2nnc3n(CCc4ccccc4)c(=O)c4ccccc4n23)c1O [Entry 225, (1Z)-1-(5-methoxy-6-oxocyclohexa-2,4-dien-1-ylidene)-4-(2-phenylethyl)-2H-[1,2,4]triazolo[4,3-a]quinazolin-5-one] | 1.173 | 1.219
Cc1cccc2c1-c1sc(C(=O)NCCCN3CCC(C)CC3)cc1CO2 [Entry 226, 9-methyl-N-[3-(4-methylpiperidin-1-yl)propyl]-4H-thieno[3,2-c]chromene-2-carboxamide] | 1.095 | 1.228
Cn1[nH]c(-c2cccnc2)c2nc(-c3ccccc3OC(F)F)nc1-2 [Entry 227, 5-[2-(difluoromethoxy)phenyl]-1-methyl-3-pyridin-3-yl-2H-imidazo[4,5-c]pyrazole] | 1.097 | 1.425
CCOC(=O)c1c(C)nc2n(C)c3ccccc3n12 [Entry 228, ethyl 2,9-dimethyl-9H-benzo[d]imidazo[1,2-a]imidazole-3-carboxylate] | 1.146 | 1.3
O=C(O)CSc1nnc2n(-c3ccccc3)c3ccccc3n12 [Entry 229, [(9-Phenyl-9H-[1,2,4]triazolo[4,3-a]benzimidazol-3-yl)thio]acetic acid] | 1.249 | 1.704
Cc1nc(-c2cnccn2)nc2c1CC(=O)N2CC1CCCO1 (stereo not shown) [Entry 230, 4-methyl-2-(2-pyrazinyl)-7-(tetrahydro-2-furanylmethyl)-5,7-dihydro-6H-pyrrolo[2,3-d]pyrimidin-6-one] | 1.053 | 1.527
CCn1c(=S)sc2c(=O)n3[nH]c(=O)c4ccccc4c3nc21 [Entry 231, 11-ethyl-10-thioxo-10,11-dihydro-6H-[1,3]thiazolo[4′,5′:4,5]pyrimido[2,1-a]phthalazine-5,8-dione] | 1.068 | 1.36
CC1CCN(C(=O)CSc2nc3c(c(=O)n2Cc2ccccc2)SCC3)CC1 [Entry 232, 3-benzyl-2-((2-(4-methylpiperidin-1-yl)-2-oxoethyl)thio)-6,7-dihydrothieno[3,2-d]pyrimidin-4(3H)-one] | 1.198 | 1.342
CC1Oc2ccc(C(=O)CSc3nc(-c4ccc(Cl)cc4)c(C#N)c(=O)[nH]3)cc2NC1=O (stereo not shown) [Entry 233, 4-(4-chlorophenyl)-2-{[2-(2-methyl-3-oxo-3,4-dihydro-2H-1,4-benzoxazin-6-yl)-2-oxoethyl]sulfanyl}-6-oxo-1,6-dihydro-5-pyrimidinecarbonitrile] | 1.256 | 1.859
CC(=O)Nc1ccc2nc3c(=O)[nH]c(=O)[nH]c3nc2c1 [Entry 234, N-(2,4-dioxo-1H-benzo[g]pteridin-8-yl)acetamide] | 1.319 | 1.648
